Experimental data as given in US12678412B2, “Substituted tolans for the modulation of microbial colonization” (BioMendics, LLC, priority 2017, dated 2026).

Tested on: S. typhimurium TA100
Assay: Dose range finding colony forming assay, strain TA100 with metabolic activation
Type: cell-based
Protocol: A series of dose range finding assays were performed with five bacterial strains, S. typhimurium TA97a, TA98, TA100, TA1535, and E. coli WP2 uvrA pKM101, with and without metabolic activation at three plates per dose. The following doses, along with positive and negative controls, were tested: 5000, 2500, 1250, 500, 250, 125, 50, 20, 10, 5, 2, 1, and 0.2 μg/plate. The plates were evaluated for toxicity (a decrease in plate counts with increasing dose and/or a visible thinning of the background lawn) and for precipitation of the test article. Metabolic activation was included in some samples by adding phenobarbital/benzoflavone-induced rat liver S9 fractions with cofactors (S9 mix). Prior to use, freshly thawed aliquots of rat liver S9 were mixed with a sterile cofactor mix. The S9 mix contains a 10% liver S9 concentration and was refrigerated or stored on ice until used. When testing with metabolic activation, the S9 mix was used in the assay tube in place of phosphate buffer.
Dosing formulations were prepared to deliver all doses in a constant volume of 0.1 mL. The highest dose was prepared from test article weighed to the nearest 0.1 mg and the remaining formulations were prepared as serial dilutions from the high dose stock formulation. Using a permanent marking pen or computer printed labels, assay plates were labeled with the project and study numbers and the date. Assay plates and tubes were labeled with a unique identifier, which was used to match the assay tubes with the properly identified minimal glucose agar plate.
The pre-incubation method was used to perform the assay. The assay mix consisted of 0.1 mL of the test article formulation or control article, 0.5 mL S9 mix or phosphate buffer, and 0.1 mL of bacterial culture. Assay tubes were incubated at 37±1° C. with gentle agitation for 20±1 minutes, then 2.0-2.5 mL top agar was added to the assay mix and the top agar/assay mix poured onto appropriately labeled minimal glucose agar plates. Once the top agar hardened, the plates were inverted and incubated at 37±1° C. for 48±2 hours. Plates were counted with the Sorcerer (v. 2.2)/Ames Study Manager (v. 1.2.4) system from Perceptive Instruments (Suffolk, UK). With this system, plate counts are automatically transferred from the plate imager (Sorcerer) to a Study Manager spreadsheet, and the data are stored in a secure manner on an Oracle database. Some plates were hand counted, e.g., if sample precipitate interferes with automatic counting or toxicity results in the formation of microcolonies, in which case, counts for these plates were entered into the spreadsheet manually. Plates were scored also with the extent of colonization by a post fix code.

COc1ccc(C#Cc2ccc(O)cc2)cc1 [BM3103, 4-hydroxy-4′-methoxytolan]
Colony forming units/plate (0.2 μg/plate): 78 colony forming units/plate
Individual colony counts (0.2 μg/plate): 78
Colony forming units/plate (1 μg/plate): 56.0 colony forming units/plate
Individual colony counts (1 μg/plate): 56
Colony forming units/plate (2 μg/plate): 36.0 colony forming units/plate
Individual colony counts (2 μg/plate): 360
Colony forming units/plate (5 μg/plate): 74.0 colony forming units/plate
Individual colony counts (5 μg/plate): 74
Colony forming units/plate (10 μg/plate): 38.0 colony forming units/plate
Individual colony counts (10 μg/plate): 38
Plate postfix code (individual colony counts) (10 μg/plate): S T
Colony forming units/plate (20 μg/plate): 54.0 colony forming units/plate
Individual colony counts (20 μg/plate): 54
Colony forming units/plate (50 μg/plate): 0.0 colony forming units/plate
Individual colony counts (50 μg/plate): 0
Colony forming units/plate (125 μg/plate): 0.0 colony forming units/plate
Individual colony counts (125 μg/plate): 0
Colony forming units/plate (250 μg/plate): 0.0 colony forming units/plate
Individual colony counts (250 μg/plate): 0
Colony forming units/plate (500 μg/plate): 0.0 colony forming units/plate
Individual colony counts (500 μg/plate): 0
Colony forming units/plate (1250 μg/plate): 0.0 colony forming units/plate
Individual colony counts (1250 μg/plate): 0
Plate postfix code (individual colony counts) (1250 μg/plate): A P
Colony forming units/plate (2500 μg/plate): 0.0 colony forming units/plate
Individual colony counts (2500 μg/plate): 0
Plate postfix code (individual colony counts) (2500 μg/plate): A P
Colony forming units/plate (5000 μg/plate): 0.0 colony forming units/plate
Individual colony counts (5000 μg/plate): 0
Plate postfix code (individual colony counts) (5000 μg/plate): A P
